{"source": "patent US8772002B1", "about": "“Method for treatment of microorganisms during propagation, conditioning and fermentation using hops acid extracts and organic acid” (Hercules Incorporated, priority 2013, dated 2014)", "key": {"[1]": {"system": "Lactobacillus plantarum", "assay": "Minimal Inhibitory Concentration (MIC), two-fold dilution series in 96 well microplate", "type": "cell-based", "settings": "for MIC: Lactiplantibacillus plantarum", "description": "This is the lowest concentration of a substance or substances which can achieve complete inhibition of growth.\nIn order to determine the Minimal Inhibitory Concentration, a two-fold dilution series of the antimicrobial is constructed with the dilutions being made in growth media. The dilutions are made in a 96 well microplate such that each well has a final volume of 280 μl of media and antimicrobial. […] After the dilution series is constructed the wells receive an inoculum of microbe suspended in growth media such that the final concentration of microbes in the well is i˜5×10^5 cfu/ml. In these examples the test microbe used is Lactobacillus plantarum. The cultures are incubated at 37° C. for 18-24 hours, and the wells scored as positive or negative for growth based on a visual examination for turbid wells, with turbidity being an indicator of growth.\n(§1) Minimal inhibitory concentrations were determined for both citric acid and hops acid at pH 6 using the protocol described above with Lactobacillus plantarum as the test microbe. Checkerboard synergy plates were constructed as described, the wells inoculated to a final concentration of ˜5×10^5 cfu/ml, incubated for 18-24 hours, and then scored visually for growth/no growth.\nas §1, with “benzoic” for “citric”"}, "[2]": {"system": "fermentation", "settings": "cited from earlier work"}, "[3]": {"system": "Weisella confusa", "settings": "cited from earlier work"}}, "note": "Where two headings read alike, the source gives them in different places.", "data": [{"compound": "O=C(O)c1ccccc1", "note": "[Benzoic Acid, benzoic acid]", "values": [{"measurement": "MIC", "setting": "[1]; pH 6, read-out: Benzoic Acid MIC (QA) used alone", "value": 100, "unit": "mg/mL"}]}, {"compound": "O=C(O)CC(O)(CC(=O)O)C(=O)O", "note": "[Citric Acid, citric acid]", "values": [{"measurement": "MIC", "setting": "[1]; pH 6, 37° C., 18-24 hours, complete inhibition of growth, read-out: Citric Acid MIC (QA) used alone", "value": 100, "unit": "mg/mL"}, {"measurement": "Citric Acid MIC (QA) used alone", "setting": "[1]; pH 6, 37° C., 18-24 hours, complete inhibition of growth", "value": 100000, "unit": "ppm"}]}, {"compound": "Virginiamycin", "values": [{"measurement": "concentration that will suppress fermentation", "setting": "[2]", "value": "over 2 mg/L"}, {"measurement": "concentration required to inhibit growth of Weisella confusa", "setting": "[3]", "value": "over 25 mg/L"}]}]}
